Results on three compounds are retold here after ChEMBL document CHEMBL1201862, “PubChem BioAssay data set” (2004).

A short description of test [1]: inhibitors of firefly luciferase expression or activity, dose response, H4 neuroglioma cells, luminescence (AID 1990). It is filed as functional, cell-based.
Test [2] is described as follows: Luminescence Cell-Based Dose Response HTS to Identify Inhibitors of 5'UTR Stem-Loop Driven Prion Protein mRNA Translation in H4 Neuroglioblastoma Cells. [Related pubchem assays: 1827 (Project Summary), 1813 (Primary HTS)]. The test is classed as functional.
Test [3] can be described thus: inhibitors of SNCA 5'UTR-driven reporter translation, confirmation, H4 neuroglioma cells, luminescence (AID 1988). It is filed as functional, cell-based.
Test [4] addresses Mothers against decapentaplegic homolog 3 (Homo sapiens, UniProt P84022). In words: SMAD3 transcription factor inhibitors, dose response (AID 715). It is filed as functional.
In test [5] the target is T1, Estrogen receptor beta (Homo sapiens, UniProt Q92731).
T1 sequence (Q92731 whole entry): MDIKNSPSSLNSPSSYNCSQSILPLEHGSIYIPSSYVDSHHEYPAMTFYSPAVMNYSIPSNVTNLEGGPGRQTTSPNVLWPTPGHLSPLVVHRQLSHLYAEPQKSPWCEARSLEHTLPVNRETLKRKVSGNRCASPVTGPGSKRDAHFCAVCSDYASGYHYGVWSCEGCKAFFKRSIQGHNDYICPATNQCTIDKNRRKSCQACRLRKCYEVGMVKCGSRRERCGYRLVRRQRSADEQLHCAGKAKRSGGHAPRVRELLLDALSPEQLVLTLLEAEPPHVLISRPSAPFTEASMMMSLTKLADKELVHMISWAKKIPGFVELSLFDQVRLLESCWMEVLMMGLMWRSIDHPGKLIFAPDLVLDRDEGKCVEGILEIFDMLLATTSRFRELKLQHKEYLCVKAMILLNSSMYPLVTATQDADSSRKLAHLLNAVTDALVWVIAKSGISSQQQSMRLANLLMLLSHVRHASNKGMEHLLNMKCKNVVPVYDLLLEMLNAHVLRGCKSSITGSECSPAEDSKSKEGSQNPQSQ
The target in test [6] is T1, Estrogen receptor beta. In words: ERβ–SRC-3 coactivator interaction inhibitors, confirmation, orthogonal assay, biochemical, ELISA, streptavidin-HRP readout (AID 1060). (In general: ELISA stands for enzyme-linked immunosorbent assay.)
The target of test [7] is Protein-tyrosine kinase 2-beta (Homo sapiens, UniProt Q14289).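 Note: potency of inhibitors of PYK2 kinase phosphorylation of poly-GT substrate.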
The target of test [8] is Peroxisome proliferator-activated receptor gamma/Nuclear receptor corepressor 2 (Homo sapiens, UniProt P37231+Q9Y618). In words: Counterscreen for NR2E3 inverse agonists: TR-FRET-based biochemical high throughput dose response assay to identify inverse agonists of the interaction between peroxisome proliferator-activated receptor gamma (PPARg) and nuclear receptor co-repressor 2 (NCOR2). It is filed as functional. Background: A counterscreen serves to expose hits that act by an unwanted route or on another target.

The target of test [9] is Photoreceptor-specific nuclear receptor (Homo sapiens, UniProt Q9Y5X4). The test is described as follows: NR2E3 inverse agonists, dose response, biochemical, TR-FRET (AID 463256). The test is classed as functional. Background: In TR-FRET formats the signal depends on donor and acceptor labels being close together.
Photoreceptor-specific nuclear receptor, sequence (Q9Y5X4 whole entry): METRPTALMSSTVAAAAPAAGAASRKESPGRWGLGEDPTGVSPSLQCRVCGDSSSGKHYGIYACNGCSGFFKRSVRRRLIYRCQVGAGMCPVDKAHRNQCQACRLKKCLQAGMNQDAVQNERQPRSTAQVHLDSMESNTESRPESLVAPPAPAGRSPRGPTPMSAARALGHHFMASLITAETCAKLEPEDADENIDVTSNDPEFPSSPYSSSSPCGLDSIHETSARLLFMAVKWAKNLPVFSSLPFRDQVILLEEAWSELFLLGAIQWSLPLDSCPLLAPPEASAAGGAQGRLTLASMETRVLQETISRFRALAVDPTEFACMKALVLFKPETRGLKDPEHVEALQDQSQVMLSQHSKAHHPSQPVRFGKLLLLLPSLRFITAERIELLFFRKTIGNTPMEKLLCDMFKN
In test [10] the target is T2, Apoptotic protease-activating factor 1 (Homo sapiens, UniProt O14727).
T2 sequence (O14727 whole entry): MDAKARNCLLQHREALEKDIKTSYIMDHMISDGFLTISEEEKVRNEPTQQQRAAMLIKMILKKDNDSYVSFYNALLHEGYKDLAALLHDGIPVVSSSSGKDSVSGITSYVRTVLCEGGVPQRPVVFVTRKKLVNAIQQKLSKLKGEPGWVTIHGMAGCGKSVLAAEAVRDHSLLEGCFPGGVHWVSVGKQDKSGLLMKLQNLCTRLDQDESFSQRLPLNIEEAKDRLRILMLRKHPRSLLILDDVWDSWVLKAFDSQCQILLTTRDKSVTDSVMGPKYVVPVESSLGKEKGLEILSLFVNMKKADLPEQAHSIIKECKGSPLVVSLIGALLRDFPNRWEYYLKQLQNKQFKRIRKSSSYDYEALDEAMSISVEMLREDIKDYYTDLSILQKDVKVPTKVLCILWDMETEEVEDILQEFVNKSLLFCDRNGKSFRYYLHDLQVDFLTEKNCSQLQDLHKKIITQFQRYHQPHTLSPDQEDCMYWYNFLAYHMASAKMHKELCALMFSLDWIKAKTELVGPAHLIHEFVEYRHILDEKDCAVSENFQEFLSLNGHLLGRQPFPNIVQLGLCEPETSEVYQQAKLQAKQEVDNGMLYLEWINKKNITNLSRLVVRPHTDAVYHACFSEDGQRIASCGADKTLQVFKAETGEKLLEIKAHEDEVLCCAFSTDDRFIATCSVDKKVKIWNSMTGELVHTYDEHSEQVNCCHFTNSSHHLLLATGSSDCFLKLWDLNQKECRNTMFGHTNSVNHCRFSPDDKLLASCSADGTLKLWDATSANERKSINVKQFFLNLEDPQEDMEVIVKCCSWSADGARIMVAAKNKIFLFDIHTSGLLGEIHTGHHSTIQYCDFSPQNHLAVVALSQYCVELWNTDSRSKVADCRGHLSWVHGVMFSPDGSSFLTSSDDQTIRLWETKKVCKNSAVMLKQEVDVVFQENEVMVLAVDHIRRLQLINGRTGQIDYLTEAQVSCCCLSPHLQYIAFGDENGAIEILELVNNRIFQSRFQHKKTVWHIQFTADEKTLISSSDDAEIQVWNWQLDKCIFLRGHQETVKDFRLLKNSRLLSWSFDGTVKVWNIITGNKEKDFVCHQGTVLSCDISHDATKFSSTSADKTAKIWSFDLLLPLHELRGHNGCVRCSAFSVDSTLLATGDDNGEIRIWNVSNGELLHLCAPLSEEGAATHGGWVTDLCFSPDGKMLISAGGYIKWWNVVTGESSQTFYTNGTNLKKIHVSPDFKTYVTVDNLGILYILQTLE
The test is classed as functional.

Test [11] concerns the target T2, Apoptotic protease-activating factor 1. In words: SAR analysis of small molecule inhibitors of Apaf-1 in a Fluorescent assay. The following applies: read-out: IC50_Mean. The test is classed as functional.
Test [12] can be described thus: HEK293T cell cytotoxicity, dose response, cytotoxicity control for HIV Vif inhibitor project, cherry-picks (AID 652208). The test is classed as functional, cell-based.
The test system of test [13] is HEK293. In words: cells. Particulars: Homo sapiens.
For test [14], the system named is HEK293. The test is described as follows: cells. Particulars: Homo sapiens. The source holds these as a separate data set.
Test [15] has as its target ALK tyrosine kinase receptor (Homo sapiens, UniProt Q9UM73). It is filed as functional.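 Note: ALK tested as one member of a kinase panel screen.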
The target of test [16] is Mitogen-activated protein kinase 8 (Homo sapiens, UniProt P45983). The test is classed as functional.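 Note: value comes from one member of a kinome-wide kinase profiling panel.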
Test [17] addresses Serine/threonine-protein kinase pim-1 (Homo sapiens, UniProt P11309). It is filed as functional.
The target of test [18] is Fibroblast growth factor receptor 1 (Homo sapiens, UniProt P11362). It is filed as functional.
The target in test [19] is High affinity nerve growth factor receptor (Homo sapiens, UniProt P04629). The test is classed as functional.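 Note: NTRK1 tested as one member of a kinome-wide profiling panel.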
Test [20] has as its target Hepatocyte growth factor receptor (Homo sapiens, UniProt P08581). It is filed as functional.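 Note: kinase panel profiling across the kinome, with MET as the panel member.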
In test [21] the target is Receptor-type tyrosine-protein kinase FLT3 (Homo sapiens, UniProt P36888). The test is classed as functional.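 Note: FLT3 was tested as one member of a kinome-wide kinase panel.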
Test [22] deals with Dual specificity tyrosine-phosphorylation-regulated kinase 1B (Homo sapiens, UniProt Q9Y463). In words: Navigating the Kinome. Panel member name: DYRK1B. The test is classed as functional.
Dual specificity tyrosine-phosphorylation-regulated kinase 1B, sequence (Q9Y463 whole entry): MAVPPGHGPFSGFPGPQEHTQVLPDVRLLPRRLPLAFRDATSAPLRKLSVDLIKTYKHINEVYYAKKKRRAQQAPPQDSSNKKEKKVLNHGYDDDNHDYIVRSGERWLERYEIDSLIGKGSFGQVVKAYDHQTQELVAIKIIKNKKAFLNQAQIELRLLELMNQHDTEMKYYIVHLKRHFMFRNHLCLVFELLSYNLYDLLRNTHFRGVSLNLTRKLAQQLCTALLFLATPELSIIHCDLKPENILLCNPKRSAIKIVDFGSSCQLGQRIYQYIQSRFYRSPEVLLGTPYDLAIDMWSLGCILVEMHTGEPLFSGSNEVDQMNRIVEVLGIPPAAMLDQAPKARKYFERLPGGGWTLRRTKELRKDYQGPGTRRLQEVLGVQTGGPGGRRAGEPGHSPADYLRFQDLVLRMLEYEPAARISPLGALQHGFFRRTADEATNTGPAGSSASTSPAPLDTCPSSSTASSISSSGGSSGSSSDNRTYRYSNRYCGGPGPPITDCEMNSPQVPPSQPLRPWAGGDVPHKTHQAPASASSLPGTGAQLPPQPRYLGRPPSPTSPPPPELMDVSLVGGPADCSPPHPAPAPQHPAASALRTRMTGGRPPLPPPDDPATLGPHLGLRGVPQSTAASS
In test [23] the target is Cyclin-dependent kinase 19 (Homo sapiens, UniProt Q9BWU1). In words: Navigating the Kinome. Panel member name: CDC2L6. It is filed as functional.
Cyclin-dependent kinase 19, sequence (Q9BWU1 whole entry): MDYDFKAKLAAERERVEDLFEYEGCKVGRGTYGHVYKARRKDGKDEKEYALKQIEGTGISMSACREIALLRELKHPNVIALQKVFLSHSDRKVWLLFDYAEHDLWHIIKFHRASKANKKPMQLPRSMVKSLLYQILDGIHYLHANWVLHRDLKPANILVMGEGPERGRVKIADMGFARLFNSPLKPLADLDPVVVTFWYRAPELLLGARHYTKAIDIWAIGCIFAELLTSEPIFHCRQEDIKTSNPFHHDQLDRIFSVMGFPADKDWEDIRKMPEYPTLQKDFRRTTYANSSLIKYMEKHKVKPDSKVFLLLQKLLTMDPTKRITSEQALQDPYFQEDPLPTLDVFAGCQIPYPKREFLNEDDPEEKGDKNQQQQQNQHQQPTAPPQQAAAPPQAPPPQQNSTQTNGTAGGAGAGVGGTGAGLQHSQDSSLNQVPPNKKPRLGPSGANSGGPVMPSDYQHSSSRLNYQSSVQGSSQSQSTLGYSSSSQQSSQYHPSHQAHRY
The target in test [24] is Glycogen synthase kinase-3 beta (Homo sapiens, UniProt P49841). It is filed as functional.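 Note: value comes from a broad kinome profiling panel, with GSK3B as the panel member.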
Glycogen synthase kinase-3 beta, sequence (P49841 whole entry): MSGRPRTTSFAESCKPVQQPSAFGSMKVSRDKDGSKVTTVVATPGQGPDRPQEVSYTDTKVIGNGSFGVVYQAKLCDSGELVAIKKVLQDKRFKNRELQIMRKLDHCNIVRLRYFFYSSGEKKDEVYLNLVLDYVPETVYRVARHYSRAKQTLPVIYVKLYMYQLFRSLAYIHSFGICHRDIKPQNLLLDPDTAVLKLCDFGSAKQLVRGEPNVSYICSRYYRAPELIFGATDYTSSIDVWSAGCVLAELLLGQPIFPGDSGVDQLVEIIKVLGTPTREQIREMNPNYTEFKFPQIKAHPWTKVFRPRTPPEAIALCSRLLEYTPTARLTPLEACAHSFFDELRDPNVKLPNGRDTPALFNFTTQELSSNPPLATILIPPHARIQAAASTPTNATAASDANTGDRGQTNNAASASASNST
The target of test [25] is Cell division cycle 7-related protein kinase (Homo sapiens, UniProt O00311). It is filed as functional.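 Note: value obtained from a kinome-wide kinase panel.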
Cell division cycle 7-related protein kinase, sequence (O00311 whole entry): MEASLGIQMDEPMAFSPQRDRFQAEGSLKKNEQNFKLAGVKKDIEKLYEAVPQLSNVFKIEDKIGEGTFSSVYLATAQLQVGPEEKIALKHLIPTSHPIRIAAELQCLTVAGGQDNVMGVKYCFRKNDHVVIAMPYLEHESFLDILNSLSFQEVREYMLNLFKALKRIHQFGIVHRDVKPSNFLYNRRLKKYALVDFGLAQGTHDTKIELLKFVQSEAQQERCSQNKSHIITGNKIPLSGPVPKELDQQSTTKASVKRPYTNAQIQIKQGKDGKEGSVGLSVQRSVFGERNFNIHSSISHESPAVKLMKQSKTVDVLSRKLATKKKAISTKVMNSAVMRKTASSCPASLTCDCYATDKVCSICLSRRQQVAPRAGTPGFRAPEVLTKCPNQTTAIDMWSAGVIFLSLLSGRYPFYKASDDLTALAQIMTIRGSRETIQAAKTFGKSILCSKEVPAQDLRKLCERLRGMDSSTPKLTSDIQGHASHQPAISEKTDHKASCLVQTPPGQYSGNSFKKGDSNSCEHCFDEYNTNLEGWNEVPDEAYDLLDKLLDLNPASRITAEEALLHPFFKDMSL
Test [26] has as its target Homeodomain-interacting protein kinase 2 (Homo sapiens, UniProt Q9H2X6). The test is classed as functional.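 Note: measured within a kinome-wide kinase profiling panel, HIPK2 being one panel member.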
For test [27], the target named is Interleukin-1 receptor-associated kinase 4 (Homo sapiens, UniProt Q9NWZ3). It is filed as functional.
Interleukin-1 receptor-associated kinase 4, sequence (Q9NWZ3 whole entry): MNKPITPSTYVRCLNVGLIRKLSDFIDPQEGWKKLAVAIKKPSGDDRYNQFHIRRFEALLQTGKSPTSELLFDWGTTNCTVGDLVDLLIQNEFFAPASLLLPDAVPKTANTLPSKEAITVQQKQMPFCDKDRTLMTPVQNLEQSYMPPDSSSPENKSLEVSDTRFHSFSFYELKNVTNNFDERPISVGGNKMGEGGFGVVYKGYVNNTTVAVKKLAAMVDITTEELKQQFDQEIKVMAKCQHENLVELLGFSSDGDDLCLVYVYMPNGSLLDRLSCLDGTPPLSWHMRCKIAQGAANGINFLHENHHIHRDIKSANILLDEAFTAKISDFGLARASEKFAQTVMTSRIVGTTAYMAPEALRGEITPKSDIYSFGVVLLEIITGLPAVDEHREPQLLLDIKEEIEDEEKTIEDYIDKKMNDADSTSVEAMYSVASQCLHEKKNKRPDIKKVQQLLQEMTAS
Test [28] concerns the target cAMP-dependent protein kinase catalytic subunit alpha (Homo sapiens, UniProt P17612). The test is classed as functional.
Test [29] concerns the target Dual specificity protein kinase CLK4 (Homo sapiens, UniProt Q9HAZ1). It is filed as functional.
Test [30] concerns the target Mitogen-activated protein kinase kinase kinase kinase 4 (Homo sapiens, UniProt O95819). The test is classed as functional.

Each structure is given as a SMILES string. Active and inactive are the calls of the source.

Serine/threonine-protein kinase pim-1, sequence (P11309 whole entry): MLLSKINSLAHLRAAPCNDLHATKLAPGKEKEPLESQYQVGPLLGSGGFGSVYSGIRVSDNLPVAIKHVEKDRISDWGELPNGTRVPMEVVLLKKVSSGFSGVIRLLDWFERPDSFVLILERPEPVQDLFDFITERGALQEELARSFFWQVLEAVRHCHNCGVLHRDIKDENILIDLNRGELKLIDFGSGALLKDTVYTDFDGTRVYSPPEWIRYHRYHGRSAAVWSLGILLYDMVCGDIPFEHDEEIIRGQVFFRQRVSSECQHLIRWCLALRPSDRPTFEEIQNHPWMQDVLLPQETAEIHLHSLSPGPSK
Mothers against decapentaplegic homolog 3, sequence (P84022 whole entry): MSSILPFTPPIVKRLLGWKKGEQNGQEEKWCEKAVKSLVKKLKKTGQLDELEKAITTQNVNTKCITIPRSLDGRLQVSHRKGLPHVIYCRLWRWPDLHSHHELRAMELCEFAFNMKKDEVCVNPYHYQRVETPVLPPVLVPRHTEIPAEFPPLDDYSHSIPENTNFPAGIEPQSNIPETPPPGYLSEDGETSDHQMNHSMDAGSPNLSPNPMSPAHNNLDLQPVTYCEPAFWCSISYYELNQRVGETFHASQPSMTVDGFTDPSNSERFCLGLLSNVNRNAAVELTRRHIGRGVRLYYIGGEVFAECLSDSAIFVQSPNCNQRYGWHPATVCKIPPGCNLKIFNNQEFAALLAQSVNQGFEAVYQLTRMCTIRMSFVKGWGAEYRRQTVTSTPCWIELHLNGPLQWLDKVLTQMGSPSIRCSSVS
Dual specificity protein kinase CLK4, sequence (Q9HAZ1 whole entry): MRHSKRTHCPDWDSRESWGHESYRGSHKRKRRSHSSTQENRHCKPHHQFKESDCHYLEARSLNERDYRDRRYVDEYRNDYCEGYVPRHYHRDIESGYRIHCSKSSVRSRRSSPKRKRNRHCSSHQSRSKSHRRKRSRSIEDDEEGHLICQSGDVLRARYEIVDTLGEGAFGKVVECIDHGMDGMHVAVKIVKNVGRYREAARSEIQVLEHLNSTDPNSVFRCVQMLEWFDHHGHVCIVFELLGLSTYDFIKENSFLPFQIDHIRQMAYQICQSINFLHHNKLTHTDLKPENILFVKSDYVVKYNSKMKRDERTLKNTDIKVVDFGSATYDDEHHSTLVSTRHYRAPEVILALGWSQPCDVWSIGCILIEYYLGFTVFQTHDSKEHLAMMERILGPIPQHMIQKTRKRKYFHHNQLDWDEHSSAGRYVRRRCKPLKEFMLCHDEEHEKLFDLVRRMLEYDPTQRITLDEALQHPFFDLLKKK

Usually EC50 stands for the concentration at which the effect is half-maximal. As a reminder, the AC50 is the concentration giving half of the maximal activity seen. With `O=C(Nc1ccc(-c2nc3cc(NC(=O)c4cccs4)ccc3[nH]2)cc1)c1cccs1`, the half-maximal effective concentration (EC50) was 0.225 µM (active) in test [1]; 40.1 µM (active) in test [2]; 0.275 µM (active) in test [3]; > 59.6 µM (inactive) with HEK293 [13]; > 59.6 µM (inactive) with HEK293 [14]. Further, the IC50 in [4] was 64.4 µM (not active); at Estrogen receptor beta [5], 2.61 µM (active); against Estrogen receptor beta [6] it was > 109 µM (not active); in test [7] it was 3.97 µM (active); in test [8] it was 10.5 µM (not active); in test [9], 9.36 µM (active). Moreover, the figures for the IC50 in test [10] and in [11] were 8.21 µM (active) and 8.37 µM (active), respectively. Besides, the AC50 in test [12] is 23.1 µM (active).
The Ki is the dissociation constant of the complex between target and ligand, obtained from inhibition or displacement. In the case of `CS(=O)(=O)c1cccc(-c2cnn3c(C(N)=O)cc(-c4ccccc4)nc23)c1`, the Ki in test [15] is 5.01 µM (active); in test [16], 3.98 µM (active); in [17] it was 3.98 µM (active); in test [18] it was 2 µM (active); in test [19], 2 µM (active); in [20] it was 2.51 µM (active). Also, the Ki was 2.51 µM (active) in test [21], 2 µM (active) in [22], > 100 µM (inactive) in [23] and 1.26 µM (active) in [24].
Regarding `CCCCNc1cc(-c2ccncc2)cc2[nH]nc(N)c12`, the Ki was 2.51 µM (active) in test [17]; 0.0126 µM (active) in test [25]; 0.398 µM (active) in test [26]; 0.0794 µM (active) in test [27]; 0.398 µM (active) in [24]; 0.398 µM (active) in [28]. The inhibition constant Ki in test [29] was 0.00316 µM (active); in test [30], 0.316 µM (active).
